Values of other authors as cited in patent US9382233B2, “Forms of vilazodone and processes for the preparation thereof” (APOTEX INC., priority 2012, dated 2016).

Conditions: benzyl alcohol and its equivalents (benzoic acid, benzoate salts, benzaldehyde, benzyl acetate and benzyl benzoate); World Health Organization (JECFA, 2001)

OCc1ccccc1 [benzyl alcohol]
acceptable daily intake (ADI): 5 mg/kg
